Measured values as given in publication PMC3729023 (Journal of the American Chemical Society, 2012).

How the values were obtained:
Src = Src kinase assay; type: biochemical; details: read-out: IC50 (inactive up to); Src pretreated 30 min in the presence of 0.25 mM ATP prior to initiating the kinase reaction
endogenous Fyn = endogenous Fyn (Homo sapiens, UniProt P06241); test: Competitive profiling with probe 1 in Jurkat cells: Fyn; type: cell-based; details: inhibitor at 300 nM, then 1 (1 µM, 15 min)
Sequence of endogenous Fyn (P06241 1-534 isoform P06241-2): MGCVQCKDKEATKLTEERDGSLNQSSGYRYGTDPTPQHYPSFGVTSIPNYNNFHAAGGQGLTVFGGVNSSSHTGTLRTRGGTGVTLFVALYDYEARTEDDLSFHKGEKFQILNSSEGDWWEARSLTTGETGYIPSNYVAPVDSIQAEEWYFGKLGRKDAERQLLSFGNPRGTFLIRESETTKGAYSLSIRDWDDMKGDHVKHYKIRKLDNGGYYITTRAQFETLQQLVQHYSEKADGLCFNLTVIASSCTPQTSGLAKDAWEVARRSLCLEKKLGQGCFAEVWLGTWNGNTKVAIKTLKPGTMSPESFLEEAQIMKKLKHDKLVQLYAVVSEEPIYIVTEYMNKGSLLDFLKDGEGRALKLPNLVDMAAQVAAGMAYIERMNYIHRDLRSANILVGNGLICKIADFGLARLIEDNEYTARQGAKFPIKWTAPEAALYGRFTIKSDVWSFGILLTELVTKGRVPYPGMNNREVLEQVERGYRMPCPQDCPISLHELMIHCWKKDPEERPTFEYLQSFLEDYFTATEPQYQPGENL

endogenous Lck = endogenous Lck (Homo sapiens, UniProt P06239); test: Competitive profiling with probe 1 in Jurkat cells: Lck; type: cell-based; details: inhibitor at 300 nM, then 1 (1 µM, 15 min)
Sequence of endogenous Lck (P06239 whole entry): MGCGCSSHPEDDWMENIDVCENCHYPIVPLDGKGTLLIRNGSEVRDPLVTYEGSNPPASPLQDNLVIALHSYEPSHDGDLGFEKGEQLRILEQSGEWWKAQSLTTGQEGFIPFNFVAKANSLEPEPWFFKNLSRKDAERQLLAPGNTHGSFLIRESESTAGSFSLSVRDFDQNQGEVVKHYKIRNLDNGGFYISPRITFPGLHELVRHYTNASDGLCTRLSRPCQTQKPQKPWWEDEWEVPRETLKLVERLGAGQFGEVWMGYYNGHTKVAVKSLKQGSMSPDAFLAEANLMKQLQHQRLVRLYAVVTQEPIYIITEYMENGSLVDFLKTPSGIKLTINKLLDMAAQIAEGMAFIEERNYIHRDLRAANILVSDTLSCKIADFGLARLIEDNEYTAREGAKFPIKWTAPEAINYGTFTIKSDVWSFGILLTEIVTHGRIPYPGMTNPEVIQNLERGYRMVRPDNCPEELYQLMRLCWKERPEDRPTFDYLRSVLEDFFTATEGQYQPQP

[1] = in humans; cited from earlier work
endogenous Src = endogenous Src (Homo sapiens, UniProt P12931); details: Jurkat cells, inhibitor at 300 nM, then 1 (1 µM, 15 min)
Sequence of endogenous Src (P12931 whole entry): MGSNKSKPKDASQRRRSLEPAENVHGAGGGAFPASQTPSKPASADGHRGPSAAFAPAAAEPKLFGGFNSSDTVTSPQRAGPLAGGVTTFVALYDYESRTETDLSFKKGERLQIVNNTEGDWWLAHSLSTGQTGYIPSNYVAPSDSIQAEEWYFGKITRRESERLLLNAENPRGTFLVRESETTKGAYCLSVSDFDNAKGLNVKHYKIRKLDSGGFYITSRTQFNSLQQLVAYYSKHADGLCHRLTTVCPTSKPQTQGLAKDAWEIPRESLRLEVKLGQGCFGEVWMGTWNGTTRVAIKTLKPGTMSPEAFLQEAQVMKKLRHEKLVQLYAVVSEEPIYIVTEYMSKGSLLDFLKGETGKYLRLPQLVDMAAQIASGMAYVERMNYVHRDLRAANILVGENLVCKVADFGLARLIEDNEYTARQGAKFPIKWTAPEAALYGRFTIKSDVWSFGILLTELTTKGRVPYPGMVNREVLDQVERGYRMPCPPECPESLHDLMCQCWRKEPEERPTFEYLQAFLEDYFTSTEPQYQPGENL

endogenous Blk = endogenous Blk (Homo sapiens, UniProt P51451); test: Competitive profiling with probe 1 in Jurkat cells: Blk; type: cell-based; details: inhibitor at 300 nM, then 1 (1 µM, 15 min)
Sequence of endogenous Blk (P51451 whole entry): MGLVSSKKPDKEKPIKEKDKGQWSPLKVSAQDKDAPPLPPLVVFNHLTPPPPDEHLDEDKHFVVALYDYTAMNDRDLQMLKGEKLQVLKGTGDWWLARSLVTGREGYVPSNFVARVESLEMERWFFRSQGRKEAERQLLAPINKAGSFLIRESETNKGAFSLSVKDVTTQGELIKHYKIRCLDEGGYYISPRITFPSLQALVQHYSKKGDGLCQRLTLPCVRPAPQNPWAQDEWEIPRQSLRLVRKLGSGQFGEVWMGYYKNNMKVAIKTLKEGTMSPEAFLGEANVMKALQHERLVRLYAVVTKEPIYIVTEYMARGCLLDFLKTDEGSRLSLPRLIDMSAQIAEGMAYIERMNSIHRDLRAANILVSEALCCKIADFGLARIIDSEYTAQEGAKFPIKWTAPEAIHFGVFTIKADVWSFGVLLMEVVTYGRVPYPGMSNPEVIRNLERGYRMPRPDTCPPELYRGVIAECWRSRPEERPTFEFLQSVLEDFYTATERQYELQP

Row | Structure (SMILES) | IC50 (Src) | labeling of endogenous Fyn by 1 (endogenous Fyn) | labeling of endogenous Lck by 1 (endogenous Lck) | mean steady-state concentrations [1] | labeling of endogenous Src by 1 (endogenous Src) | labeling of endogenous Blk by 1 (endogenous Blk)
1 | Nc1ncnc2c1ncn2[C@@H]1O[C@H](COC(=O)c2ccc(S(=O)(=O)F)cc2)[C@@H](O)[C@H]1O [FSBA, p-fluorosulfonylbenzoyl adenosine] | > 10 µM | – | – | – | – | –
2 | Cc1ccc(C(=O)Nc2ccc(CN3CCN(C)CC3)c(C(F)(F)F)c2)cc1C#Cc1cnc2cccnn12 [ponatinib] | – | unaffected | abrogated labeling | 75 to 180 nM | unaffected | abrogated labeling
